Patent publication US11730712B2, “Functionalized long-chain hydrocarbon mono- and di-carboxylic acids and derivatives thereof, and their use for the prevention or treatment of disease” (ESPERVITA THERAPEUTICS, INC., priority 2021, dated 2023)
One block for each compound: values may come before it.

Columns and labels:
[1] = system: mouse primary hepatocytes; experiment: 14C-acetate incorporation into total lipids in primary mouse hepatocytes; type: cell-based; conditions: 4-hour period; for IC50: Hepatocyte, read-out: IC50 in μM, inhibition of 14C-acetate incorporation in total lipids
Procedure: After perfusion, collagen digested liver cells were re-suspended in William's E media (11 mM glucose) (Gibco) supplemented with 10% fetal bovine serum (FBS) (Gibco), 2 mM L-glutamine (Gibco) and 1% Antibiotic-Antimycotic (Gibco) mixture and seeded in white opaque 96-well plates. On the following day, the cells were serum-starved for 2 hours, then treated with 0 μM, 0.1 μM, 0.3 μM, 0.5 μM, 1 μM, 3 μM, 10 μM, and 100 μM of Compound I-32, Compound I-1, or Compound III-1 or Reference Compound (e.g., Compounds A-E and bempedoic acid) in the presence of ^14C-Acetate (1 μCi/ml, PerkinElmer). Each of Compound I-32, Compound I-1, Compound III-1, and Reference Compound was solubilized in 100% DMSO to a final concentration of 100 mM stock solution. In the experimental condition, the stock solution was diluted in serum free media (William's E media (11 mM glucose) (Gibco), 2 mM L-glutamine (Gibco) and 1% Anti biotic-Antimycotic) to yield the desired concentration of each compound. […] After 4 hours of treatment, the plates were washed two times with PBS (×1) and 100 μL microscint fluid (Microscint O, part #601361) was added in each well. Plates were wrapped with aluminum foil and were shaken at 250 rpm for 2 h. After 2 h of shaking, ^14C incorporation into lipid was determined by liquid scintillation counting using a TopCount NXT Microplate Scintillation and Luminescence Counter (Perkin Elmer).
The effects of Compound I-32. Compound I-1, and Compound III-1 on mouse primary hepatocyte lipogenesis are represented in Table 1. Each Compound was assayed at a concentration of 0 μM (vehicle control), 0.1 μM, 0.3 μM, 0.5 μM, 1 μM, 3 μM, 10 μM, and 100 μM, unless otherwise noted. Statistically significant inhibition was determined by one-way ANOVA and Dennett's post hoc test where appropriate. […] IC50 values were determined by nonlinear regression. All statistical analyses were carried out using GraphPad Prism 8 software. A p-value of less than or equal 0.05 was considered significant.

[2] = system: Hepa1-6 murine hepatoma cells; experiment: Cell proliferation assay (presto blue, 72 h); type: cell-based, mouse; conditions: Mus musculus, Hepa1-6, 72 h; read-out: Hepa1-6 (IC50), anti-proliferation activity
Procedure: (§1) Cell cultures. Hep3B (ATCC) and Hepa1-6 (ATCC) cells were seeded in 96-well plates at a density of 3000 cells/well with complete media. On day 2, media in each well was aspirated and replaced with 100 μl of fresh complete media and cells were treated with or without Compound I-1, Compound I-32, Compound I1-84, and Compound I-85, in a concentration dependent manner. Then, cells were incubated in an incubator for 72 h. On day 5, 10 μl of presto blue (Invitrogen, cat #A13261) cell viability reagent was added in each 96-well plate and incubated at 37° C. for 1-2 h. After incubation, fluorescence was measured with an excitation/emission wavelength of 560/590 nm.
(§2) Proliferation assay. Hep3B (ATCC) and Hepa1-6 (ATCC) cells were seeded in 96-well plates at a density of 3000 cells/well with complete media. On day 2, media in each well was aspirated and replaced with 100 μl of fresh complete media and cells were treated with/without testing compounds in a concentration dependent manner. Then, cells were incubated in an incubator for 72 h. On day 5, 10 μl of presto blue (Invitrogen, cat #A13261) cell viability reagent was added in each 96-well plate and incubated at 37° C. for 1-2 h. After incubation, fluorescence was measured with an excitation/emission wavelength of 560/590 nm. Anti-proliferative combination effects of Compound I-1 or Compound I-32 and regorafenib were determined in Hep3B and Hepa1-6 cells. Drug combination interaction was determined by the Chou-Talalay method (23), which is based on well-known equations for different reaction sequences and mechanisms, and different types of inhibition. These equations provide the theoretical basis for the combination index (CI)-isobologram equation that allows quantitative determination of drug interactions, where CI<1, =1, and >1 indicate synergism, additive effect, and antagonism, respectively. CI is calculated based on in vitro measurements implemented in the Compusyn software (www.combosyn.com), a platform for drug combinations pharmacodynamics with automated simulations. The software calculates CI based on the Fractional Inhibition (Fa), which is the potency expressed by the average effect values for each drug concentrations as determined by in vitro experiments. The dose-effect data entries are utilized for automated computerized analysis by the Compusyn software.
(§3) Data entered was obtained by in vitro experiments performed as follows: Hep3B or Hepa 1-6 cells were plated in a 96-well format and cell proliferation rates were determined as described above. Cells were treated with 5 doses of each test agent alone at the following concentrations: compounds of the invention dosed at 1, 5, 10, 50, or 100 μM for both Hep3B and Hepa1-6 cells, regorafenib dosed at 0.015, 0.075, 0.15, 0.75, and 1.5 μM for Hep3B cells or 0.05, 0.25, 0.5, 2.5, 5 μM for Hepa 1-6 cells. […]. Data are shown as Fa-CI plots where CI is the combination index and Fa is fractional inhibition. Results were indicated as mean±standard deviation (SD). All bar diagrams and line graphs were prepared using Graph Pad Prism 8 software. Drug synergy was calculated using the CompuSyn software.
(§4) Methods: Hep3B cells (supplied by ATCC) and Hepa1-6 cells (supplied by ATCC) were seeded in 96-well plates at a density of 3000 cells/well with complete media. On day 2, the media in each well was aspirated and replaced with 100 μL of fresh complete media, and the cells were treated in a concentration dependent manner with either Compound I-1, Compound I-32, Compound I-84, Compound I-85, sorafenib, lenvatinib, Compound I-1 in combination with sorafenib. Compound I-1 in combination with lenvatinib, Compound I-32 in combination with sorafenib, or Compound I-32 in combination with lenvatinib. The cells were then incubated in an incubator at 37° C. for 72 h. On day 5, 10 μL of presto blue (Invitrogen, cat #A13261) cell viability reagent was added to each 96-well plate and incubated at 37° C. for 1-2 h. […]

[3] = system: Hep3B human hepatocarcinoma cells; experiment: Cell proliferation assay (presto blue, 72 h); type: cell-based; conditions: Homo sapiens, Hep3B, 72 h; read-out: Hep3B (IC50), anti-proliferation activity
Procedure: as §1, §2, §3, §4

[4] = system: Hep3B human hepatocarcinoma cells; experiment: Colony formation assay (clonogenic survival, 7 days); type: cell-based; conditions: 168 h, read-out: Hep3B (IC50), anti-clonogenic activity
Procedure: (§5) Colony formation assay. Hep3B and Hepa1-6 cells were seeded in 12-well plates at a cell density of 1000 and 500 cells/well, respectively. On day 2, media in each well was aspirated and replaced with 1000 μl of fresh complete media and cells were treated with or without the respective drugs in an increasing concentration followed by the incubation of the cells for 7 days in an incubator.
(§6) On day 9, the media in each well was aspirated and cells were fixed with 10% formalin (500 μl) for 10 minutes at room temperature. Formalin was aspirated and the plates were washed with 1×PBS and stained with crystal violet for another 10 minutes. After 10 minutes of staining, crystal violet was […] the cells, rinsed with tap water for three times and the plates were dried overnight. Next day, colonies (>50 cells) were counted and analyzed.
(§7) Statistical tests. Results were indicated as mean±standard deviation (SD). All line graphs were prepared using Graph Pad Prism 8 software. Proliferation and clonogenics IC50 values were calculated using a non-linear regression model in Graph pad Prism 8.

[5] = system: Hepa1-6 murine hepatoma cells; experiment: as above; type: cell-based; conditions: Mus musculus, Hepa1-6, 168 h, read-out: Hepa1-6 (IC50), anti-clonogenic activity
Procedure: as §5, §6, §7

[6] = system: Acyl-CoA synthetase activity in rat liver microsomes; experiment: Synthesis of CoA derivatives in rat liver microsomes (LCMS); conditions: 1 mM substrate, 30 min sample vs 0 min
Procedure: Prior to the experiment a 1 mM working stock was created in primary hepatocyte media which was used to create the final dilution series of 0 (vehicle), 0.3, 1, 3, 10, and 30 μM. The final concentration of DMSO in all samples was <1%.
For initial validation of ACS activity using palmitate, 14C-palmitate was added (0.5 μCi/ml). Each sample was equilibrated at 37° C. while shaking for 10 min before the reaction was initiated by the addition of 0.04 mg of rat microsomal preparation (ThermoFisher Scientific. Cat #RTM-CPL, Lot #RT060-A) followed by incubation for 1, 3, 10, or 30 mins. Time 0 sample with no added microsomes was used as a control. The reaction was stopped by immediately placing the reaction tube on ice followed by the rapid addition of the reaction mixture to 2.25 ml ice-cold isopropanol/heptane/2M-sulfuric acid (40:10:1, vol/vol) in a 5 ml glass vial. […] For studies that involved measurement of 14C Palmitoyl-CoA formation, 200 μl of the lower aqueous phase was added to the 5 ml of scintillation fluid and the number of DPMs were determined by liquid scintillation counting for 5 minutes using a LS6500 Liquid Scintillation Counter (Beckman Coulter). […]
The reaction products were ionized by electrospray ion source (ESI) in positive mode. […] The resulting mass spectra were analyzed using the Xcalibur 2.1 Qualitative software package. […]

[7] = target: T1, Human ACC1 (Homo sapiens, UniProt Q13085); experiment: ACC1 enzymatic assay (ADP-Glo); type: biochemical; conditions: recombinant human ACC1 5 nM, 10 μM ATP, 10 μM acetyl CoA; Run 1-3; read-out: Compound IC50 (M) ACC1
T1 construct: FLAG (C); His (C); purchased BPS Biosciences 50202; host or cells: Baculovirus infected Sf9 cells
Procedure: (§8) Human ACC1 (Cat#50202 Lot #120830) and ACC2 (Cat #50201 Lot #160217) were obtained from BPS Biosciences, San Diego, Calif. 92121. Human ACC1 had C-terminal flag and His-tags with a MW of 270 KDa after purification from Baculovirus infected Sf9 cell expression system and came as a solution in 50 mM Tris-HCl, pH 8.0, 500 mM NaCl, 10% glycerol, 1 mM DTT, 100 μg/ml FLAG peptide with 70% purity. The stock concentration was 0.25 mg/ml corresponding to 0.926 μM. Human ACC2 was also purified from Baculovirus infected Sf9 expression system. […] The stock concentration was 0.1 mg/ml corresponding to 0.36 μM. The assay buffer for measuring the activity of ACC contained: 30 mM HEPES (pH 7.4), 2 mM MgCl2, 0.01% Brij35, 2 mM DTT, 1% DMSO (solvent for compound). For ACC1 and ACC2 assays, the following concentrations of substrate and cofactors were used: 12 mM NaHCO3, 10 μM acetyl CoA, 10 μM ATP, and 2 mM K-citrate. The recombinant human enzyme was used at 5 nM for ACC1 and 1 nM for ACC2. In brief, enzyme alone in the above buffer without substrate was used for background. All test materials were dissolved in 100% DMSO using acoustic technology (Echo550). The prepared solution was preincubated for 15 min followed by the addition of 5 μL/well of ADP standard. ATP was then added to start the reaction. The assay contents were spun and briefly shaken followed by incubation at room temperature for 1 h. At the end of completion of assay, 5 μL of ADP-Glo was added to each well to stop the reaction. The contents were mixed, spun and incubated at room temperature for 40 min followed by the addition of 10 μL/well of ADP detection reagent. The contents were spun, mixed and covered with plastic to measure luminescence. […] The light generated, measured in a luminometer, correlates to the amount of ADP generated in the ACC assay, which is indicative of ACC activity.
(§9) The enzyme concentrations for ACC1 and ACC2 were 5 nM and 1 nM, respectively.
Data represent nM or μM ADP produced, % Activity (relative to no inhibitor controls), and curve fits were performed by GraphPad Prism software. The IC50 concentration-response curves were generated for both the ACC1 and ACC2 assays using recombinant human ACC.

[8] = target: T2, Human ACC2 (Homo sapiens, UniProt O00763); experiment: ACC2 enzymatic assay (ADP-Glo); type: biochemical; conditions: recombinant human ACC2 1 nM, 10 μM ATP, 10 μM acetyl CoA; Run 1-3; read-out: Compound IC50 (M) ACC2
T2 construct: FLAG (C); His (C); purchased BPS Biosciences 50201; host or cells: Baculovirus infected Sf9 cells
T2 sequence (O00763 whole entry): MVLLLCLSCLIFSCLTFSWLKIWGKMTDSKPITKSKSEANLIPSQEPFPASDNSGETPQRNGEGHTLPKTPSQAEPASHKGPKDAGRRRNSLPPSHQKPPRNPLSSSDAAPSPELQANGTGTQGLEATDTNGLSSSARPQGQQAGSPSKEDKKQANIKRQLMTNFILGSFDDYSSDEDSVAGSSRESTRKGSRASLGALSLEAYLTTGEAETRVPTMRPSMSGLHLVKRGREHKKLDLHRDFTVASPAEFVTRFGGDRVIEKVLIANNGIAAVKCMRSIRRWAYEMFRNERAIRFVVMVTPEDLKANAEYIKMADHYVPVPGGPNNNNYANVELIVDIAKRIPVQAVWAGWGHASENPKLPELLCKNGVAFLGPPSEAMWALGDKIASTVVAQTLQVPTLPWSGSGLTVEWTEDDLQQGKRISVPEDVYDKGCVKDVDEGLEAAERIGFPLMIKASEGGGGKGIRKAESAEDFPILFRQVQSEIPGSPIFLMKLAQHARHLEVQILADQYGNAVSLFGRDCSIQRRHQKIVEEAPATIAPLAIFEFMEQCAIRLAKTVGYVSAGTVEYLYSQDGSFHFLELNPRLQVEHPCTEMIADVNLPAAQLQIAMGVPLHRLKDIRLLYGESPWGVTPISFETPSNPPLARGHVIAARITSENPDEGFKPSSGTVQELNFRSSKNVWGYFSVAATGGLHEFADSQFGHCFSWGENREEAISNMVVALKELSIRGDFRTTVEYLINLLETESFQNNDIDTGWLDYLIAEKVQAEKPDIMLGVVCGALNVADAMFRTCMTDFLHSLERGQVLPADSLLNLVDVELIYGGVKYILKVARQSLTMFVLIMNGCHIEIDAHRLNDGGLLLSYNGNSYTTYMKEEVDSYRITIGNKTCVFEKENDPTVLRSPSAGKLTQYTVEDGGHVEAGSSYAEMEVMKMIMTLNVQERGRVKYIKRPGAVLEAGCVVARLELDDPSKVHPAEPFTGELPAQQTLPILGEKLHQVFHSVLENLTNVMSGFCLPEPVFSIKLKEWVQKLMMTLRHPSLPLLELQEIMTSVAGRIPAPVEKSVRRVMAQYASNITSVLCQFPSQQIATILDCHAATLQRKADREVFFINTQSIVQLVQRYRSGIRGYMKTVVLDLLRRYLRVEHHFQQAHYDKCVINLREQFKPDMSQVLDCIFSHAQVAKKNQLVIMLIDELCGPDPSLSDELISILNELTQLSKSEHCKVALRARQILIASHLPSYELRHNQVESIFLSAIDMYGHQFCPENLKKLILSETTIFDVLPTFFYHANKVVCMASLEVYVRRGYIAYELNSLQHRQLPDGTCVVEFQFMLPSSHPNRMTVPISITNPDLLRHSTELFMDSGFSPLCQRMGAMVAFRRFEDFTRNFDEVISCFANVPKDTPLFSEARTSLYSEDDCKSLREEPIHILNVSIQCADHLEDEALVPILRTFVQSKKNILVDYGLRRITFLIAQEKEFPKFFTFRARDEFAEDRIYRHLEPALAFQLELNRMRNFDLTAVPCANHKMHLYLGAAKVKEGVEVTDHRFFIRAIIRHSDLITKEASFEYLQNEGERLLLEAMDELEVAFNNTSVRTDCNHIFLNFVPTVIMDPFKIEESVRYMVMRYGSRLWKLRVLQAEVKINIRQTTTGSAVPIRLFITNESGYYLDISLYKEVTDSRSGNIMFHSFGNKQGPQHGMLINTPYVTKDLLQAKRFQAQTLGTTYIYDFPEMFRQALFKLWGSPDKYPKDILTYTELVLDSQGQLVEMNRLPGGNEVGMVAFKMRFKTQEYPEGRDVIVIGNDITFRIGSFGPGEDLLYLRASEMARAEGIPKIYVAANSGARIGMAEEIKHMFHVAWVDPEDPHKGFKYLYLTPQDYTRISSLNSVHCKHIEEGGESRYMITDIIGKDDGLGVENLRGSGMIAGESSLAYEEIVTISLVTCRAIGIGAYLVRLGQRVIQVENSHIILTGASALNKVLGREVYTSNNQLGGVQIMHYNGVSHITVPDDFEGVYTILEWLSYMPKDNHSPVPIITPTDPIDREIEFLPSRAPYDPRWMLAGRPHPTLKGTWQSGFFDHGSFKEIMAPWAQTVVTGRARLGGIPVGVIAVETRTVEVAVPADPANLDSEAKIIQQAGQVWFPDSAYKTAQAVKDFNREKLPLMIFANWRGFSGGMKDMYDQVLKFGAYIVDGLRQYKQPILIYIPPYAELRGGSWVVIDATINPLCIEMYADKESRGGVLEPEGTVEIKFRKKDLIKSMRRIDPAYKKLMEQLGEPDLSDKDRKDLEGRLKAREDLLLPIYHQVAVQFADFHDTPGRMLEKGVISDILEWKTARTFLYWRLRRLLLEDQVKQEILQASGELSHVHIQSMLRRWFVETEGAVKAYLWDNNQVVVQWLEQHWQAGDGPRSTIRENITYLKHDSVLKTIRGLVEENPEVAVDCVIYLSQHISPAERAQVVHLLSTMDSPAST
Procedure: as §8, §9
Data represent nM or μM ADP produced, % Activity (relative to no inhibitor controls), and curve fits were performed by GraphPad Prism software. […]

Structure (SMILES): CC(C)(CCCCCC(O)CCCCCC(C)(C)C(=O)O)C(=O)O [BA, Bempedoic acid]
IC50 [1]: 0.68 µM

IC50 [2]: > 100 µM
IC50 [3]: > 100 µM
Structure (SMILES): CC(C)(CCCCc1ccc(CCCCC(C)(C)CC(=O)O)cc1)CC(=O)O [Compound I-84, 7,7′-(1,4-phenylene)bis(3,3-dimethylheptanoic acid)]
IC50 [4]: 50.1 µM
IC50 [5]: 64.9 µM

Structure (SMILES): CC(C)(CCCc1ccccc1CCCC(C)(C)C(=O)O)C(=O)O [Compound I-61, 5-[2-(4-Carboxy-4-methylpentyl)-phenyl]-2,2-dimethylpentanoic acid]
% change from control at 100 μM ± SEM(n), 14C-acetate incorporation in total lipids [1]: +44 ± 8.1 (n = 4) %

Structure (SMILES): CC(C)(CCCc1ccc(CCCC(C)(C)C(=O)SCCNC(=O)CCNC(=O)[C@H](O)C(C)(C)COP(=O)(O)OP(=O)(O)OC[C@H]2O[C@@H](n3cnc4c(N)ncnc43)[C@H](O)[C@@H]2OP(=O)(O)O)cc1)C(=O)O [III-1-CoA, 5-[4-(4-Carboxy-4-methylpentyl)-phenyl]-2,2-dimethylpentanoic acid Coenzyme A ester]
formation of the CoA derivative, detection by LCMS [6]: could not be confirmed using fragmentation analysis

Structure (SMILES): CC(C)(CCCCCC(=O)CCCCCC(C)(C)C(=O)O)C(=O)O [C]
IC50 [1]: 0.46 µM

Structure (SMILES): CC(C)(CCCc1ccc(CCCC(C)(C)C(=O)O)cc1)C(=O)O [III-1, 5,5′-(1,4-phenylene)bis(2,2-dimethylpentanoic acid)]
IC50 [1]: 27.7 µM

IC50 [7]: 2.14e-06 M
IC50 [8]: 7.81e-08 M
Structure (SMILES): O=C(c1c2ccccc2cc2ccccc12)N1CCC(N2CCC[C@@H](C(=O)N3CCOCC3)C2)CC1 [CP 640186, reference compound]

IC50 [2]: > 100 µM
IC50 [3]: > 100 µM
Structure (SMILES): CC(C)(CCCCc1cccc(CCCCC(C)(C)CC(=O)O)c1)CC(=O)O [Compound I-85, 7,7′-(1,3-phenylene)bis(3,3-dimethylheptanoic acid)]
IC50 [4]: 49.1 µM
IC50 [5]: 61 µM

Structure (SMILES): CC(C)(CCCCC(=O)CCCCC(C)(C)C(=O)O)C(=O)O [B]
% change from control at 100 μM ± SEM(n), 14C-acetate incorporation in total lipids [1]: −69 ± 2.3 (n = 4) %
IC50 [1]: 25.6 µM

Structure (SMILES): CC(C)(CCCCCCC(=O)CCCCCCC(C)(C)C(=O)O)C(=O)O [E]
IC50 [1]: 0.35 µM

Structure (SMILES): CC(C)(CO)CCCCC(=O)CCCCC(C)(C)CO [A]
IC50 [1]: 73.2 µM

Structure (SMILES): CC(C)(CO)CCCCCC(=O)CCCCCC(C)(C)CO [D]
IC50 [1]: 5.39 µM

Structure (SMILES): CC(C)(CCCCCCCCCCCC(C)(C)C(=O)O)C(=O)O [F]
IC50 [1]: < 0.3 µM
